For data set [1] the following is noted: 30 mg/kg, mouse CIA experiment; cited from earlier work.
For data set [2], the target named is T1, His-GR-LBD (F602S mutated) (Homo sapiens, UniProt P04150, F602S).
T1 construct: E. coli produced His-GR-LBD (F602S mutated) at 10 nM; made in house; host or cells: E. coli
T1 sequence (P04150 524-758 F602S limits assumed): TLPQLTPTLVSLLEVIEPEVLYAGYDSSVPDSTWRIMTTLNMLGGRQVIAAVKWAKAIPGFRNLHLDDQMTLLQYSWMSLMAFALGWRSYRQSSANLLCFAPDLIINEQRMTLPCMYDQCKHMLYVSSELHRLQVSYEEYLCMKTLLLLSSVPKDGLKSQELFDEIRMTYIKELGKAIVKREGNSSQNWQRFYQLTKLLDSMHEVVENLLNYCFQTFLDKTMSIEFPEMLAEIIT
The data set can be described thus: Co-factor-peptide (TIF2-3) recruitment assay. Format: biochemical. To be noted: for Emax: read-out: percentage maximal efficacy (%CV), recruitment of TIF2-3 peptide. On the procedure: Hereafter, peptide, representing Transcriptional Intermediary Factor 2 – LXXLL motif 3 (TIF2-3) at 100 nM (final concentration), streptavidin-APC (8 nM, final concentration) and anti-His-Eu (1.25 nM final concentration) were added to a total volume of 50 μL/well and incubation at 4°C was continued for another 20 hours. Fluorescence was measured using Tecan Infinite M1000 and data were analysed by GraphPad Prism.

A further data set in a line: Pharmacokinetics in mice. The format is in vivo, mouse. The note with it: for half-life: read-out: T1/2 eli (converted); for C0: extrapolated to T=0, read-out: Cmax; for Tmax: female Balb/c mice. As for the experimental part:
For each time-point 3 female Balb/c mice are used. Tmax = Time of maximum observed concentration (in case of i.v. administration Tmax = 0 h); time is expressed in hours (h). Cmax = concentration corresponding to Tmax and expressed in nmol/ml, for i.v. dosing Cmax is extrapolated to T=0. T 1/2 eli(mination) (terminal half-life) = ln(2)/λz expressed in h(ours). AUClast = Area under the curve from the time of dosing (Dosing-time) to the last measurable concentration. AUCinf = predicted Area Under the Curve from the time of dosing extrapolated to infinity and expressed in “h*nmol/ml”. Vz = Volume of distribution based on the terminal phase = Dose / λz* AUCinf and expressed inL/kg. Cl = total body clearance = Dose / AUCinf and expressed in L/h/kg. MRTinf = mean residence time (MRT) extrapolated to infinity for non-infusion models, expressed in h. Vss = gives an estimate of the volume of distribution at steady-state and is expressed in L/kg. […] The bioavailability is expressed in %. i.v. = intraveneously, p.o. = per oral

Data set [3] has as its target T2, human chimeric glucocorticoid-mineralocorticoid receptor (GGM) (Homo sapiens, UniProt P04150+P08235, G607S/G671E/L660Y/Q661R/V618L).
T2 construct: glucocorticoid receptor part of the chimera (human NR3C1, P04150); expressed in transfected cells; host or cells: CHO K1
T2 sequence (P04150+P08235 with tags, fused parts or gaps P08235:G607S/P08235:V618L/P08235:L660Y/P08235:Q661R/P08235:G671E): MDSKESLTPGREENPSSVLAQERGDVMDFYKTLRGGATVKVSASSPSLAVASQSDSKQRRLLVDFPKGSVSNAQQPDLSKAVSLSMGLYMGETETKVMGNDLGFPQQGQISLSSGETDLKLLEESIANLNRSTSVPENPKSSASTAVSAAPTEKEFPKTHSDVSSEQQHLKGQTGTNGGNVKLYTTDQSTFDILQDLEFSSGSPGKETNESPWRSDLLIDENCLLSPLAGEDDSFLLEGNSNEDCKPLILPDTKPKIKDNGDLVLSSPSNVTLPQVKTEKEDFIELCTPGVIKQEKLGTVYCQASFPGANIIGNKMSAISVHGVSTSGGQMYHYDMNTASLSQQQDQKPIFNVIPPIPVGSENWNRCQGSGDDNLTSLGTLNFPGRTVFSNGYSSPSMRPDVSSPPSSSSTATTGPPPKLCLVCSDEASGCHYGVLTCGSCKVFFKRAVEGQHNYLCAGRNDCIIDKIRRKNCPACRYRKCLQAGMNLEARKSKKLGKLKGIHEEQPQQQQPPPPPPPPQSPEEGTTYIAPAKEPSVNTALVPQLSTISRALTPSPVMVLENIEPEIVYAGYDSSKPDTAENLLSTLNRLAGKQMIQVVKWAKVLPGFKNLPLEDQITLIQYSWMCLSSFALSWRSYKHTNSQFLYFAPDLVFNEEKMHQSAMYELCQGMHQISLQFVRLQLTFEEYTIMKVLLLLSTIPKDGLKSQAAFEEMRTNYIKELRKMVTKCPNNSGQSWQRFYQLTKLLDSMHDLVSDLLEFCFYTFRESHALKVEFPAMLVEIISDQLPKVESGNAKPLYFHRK
The data set can be described thus: CHO steroid receptor reporter assay, MR (GGM) / MMTV-Luc. Format: cell-based. An excerpt:
For monitoring both human steroid receptor agonistic as well as antagonistic activity of compounds, Chinese hamster ovary (CHO) K1 cells stably co-transfected with the specific human steroid receptor and its respective reporter construct were used (as previously described).
For human glucocorticoid receptor (GR)-specific activity CHO-GR B4.8 cells containing both recombinant human GR as well as a reporter construct consisting of the mouse mammary tumor virus (MMTV) promotor and the luciferase reporter gene, were used. Compound was incubated alone (in the agonistic setup) or with 50 nM dexamethasone (in the antagonistic setup) overnight. Hereafter, 200 µl medium was removed and 50 µl luciferine substrate solution from the LucLite luminescence kit (Packard, Meriden, USA) was added. […] Percentage maximal antagonistic efficacy was related to the maximal antagonistic efficacy of reference GR antagonist Org 34116. Similar procedures were followed for the other human steroid receptor assays (for more detailed information see Supportive Information) (SI text).
Similar procedures were followed for the other human steroid receptor assays containing combinations of human progesterone receptor B (PR-B) and MMTV-Luc, human androgen receptor (AR) and MMTV-Luc, human chimeric glucocorticoid-mineralocorticoid receptor (GGM, Trapp et al. (1994), Neuron 13: 1457) and MMTV-Luc, human estrogen receptor alpha (ERα) and rat oxytocin-Luc (45), and human estrogen receptor beta (ERβ) and rat oxytocin-Luc, respectively.

Where [4] appears, read: female, Balb/c, mouse, in vivo, iv, 10 umol/kg, 10 μmol/kg i.v.
[5] abbreviates: female, Balb/c, mouse, in vivo, po, 20 umol/kg, 20 μmol/kg p.o.
[6] abbreviates: female, Balb/c, mouse, in vivo, iv, 4 umol/kg, 4 μmol/kg i.v.
Setting [7] is: female, Balb/c, mouse, in vivo, po, 10 umol/kg, 10 μmol/kg p.o.

In general, AUC(0-inf) refers to the area under the concentration-time curve extrapolated to infinity. Low values mean low exposure, high ones high exposure. The AUC(0-t) is the area under the concentration-time curve up to a stated or last time point. A low value points to less exposure. As a reminder, the MRT inf is a mean duration of stay, worked out from the concentration-time curve. As usually defined, the clearance is the volume of plasma or blood freed of the substance per unit of time. High values mean efficient removal, low ones inefficient removal. As usually defined, the Cmax is the highest concentration seen after dosing. What is called Tmax is the time from dosing to the highest level. Usually EC50 stands for the midpoint of the concentration-response curve. As a reminder, the IC50 is the midpoint of a concentration-inhibition curve. A word on the bioavailability: it is the share of a dose that reaches the circulation, judged against a reference dose that is usually intravenous.

Like-named read-outs stand apart in the source and are kept apart here.

In the case of `C[C@]12C=CC(=O)C=C1CC[C@@H]1[C@@H]2[C@@H](O)C[C@@]2(C)[C@H]1CC[C@]2(O)C(=O)CO` [prednisolone, reference compound], in data set [1], the serum insulin levels result is recorded as “significantly elevated”. For the same molecule, the Emax in data set [2] is 100%. Moreover, in the data set “Pharmacokinetics in mice” (20 μmol/kg p.o.), the Cl was found to be 30 mL/min/kg and the Vz is on record as 1.2 L/kg. In the data set “Pharmacokinetics in mice” (setting [4]), this molecule showed an AUC(0-inf) of 7.1 µM·h, an AUC(0-t) of 7.1 µM·h, an MRT inf of 24 min and a clearance of 23.3 mL/min/kg. Besides, the half-life in the data set “Pharmacokinetics in mice” (setting [4]) is 15.6 min. For the same molecule, the Vd in the data set “Pharmacokinetics in mice” (female, Balb/c, mouse, in vivo, iv, 10 umol/kg, 10 μmol/kg i.v., read-out: Vss) came to 0.5 L/kg. In the data set “Pharmacokinetics in mice” (female, Balb/c, mouse, in vivo, iv, 10 μmol/kg i.v.), the C0 is 18 µM. In addition, in the data set “Pharmacokinetics in mice” (setting [5]), the total exposure AUC(0-inf) worked out at 11 µM·h, the AUC(0-t) came out at 11 µM·h, the Cmax came to 11.5 µM and the MRT inf amounted to 48 min. In “Pharmacokinetics in mice” (setting [5]), the half-life was 24 min. Also, the Tmax in “Pharmacokinetics in mice” (mouse, in vivo, po, 20 umol/kg, 20 μmol/kg p.o.) worked out at 18 min.
In the case of `Cc1nnsc1C(=O)N[C@H]1CCN2c3ccc(C#N)cc3[C@@H](C)c3ccccc3[C@@H]2C1` [Org 214007-0], the EC50 in data set [2] (0.1 μM peptide, read-out: EC50 (%CV), recruitment of TIF2-3 peptide) worked out at 10 nM. The Emax in data set [2] was 67%. In data set [3] (read-out: % efficacy (antagonist)), the Emax was > 40%. Moreover, the EC50 in data set [3] (read-out: EC50 (agonist)) is > 1000 nM. In addition, in data set [3] (read-out: IC50 (antagonist)), the IC50 was > 1260 nM. In addition, in data set [3] (relative to reference compound), the “% agonist potency” value is listed as <0.1% and the “% antagonist potency” value is <1.27%. In “Pharmacokinetics in mice” (10 μmol/kg p.o.), this molecule came in with a Cl of 6.7 mL/min/kg and a Vz of 3.2 L/kg. In “Pharmacokinetics in mice” (setting [6]), the AUC(0-inf) is 10.8 µM·h, the AUC(0-t) was 10.1 µM·h, the MRT inf amounted to 474 min and the clearance was 6.67 mL/min/kg. For the same molecule, in “Pharmacokinetics in mice” (setting [6]), the half-life was 384 min. In addition, the Vd in “Pharmacokinetics in mice” (female, Balb/c, mouse, in vivo, iv, 4 umol/kg, 4 μmol/kg i.v., read-out: Vss) is 2.9 L/kg. In addition, the Vd in the data set “Pharmacokinetics in mice” (female, Balb/c, mouse, in vivo, iv, 4 umol/kg, 4 μmol/kg i.v., read-out: Vz) was determined as 3.4 L/kg. Moreover, the C0 in the data set “Pharmacokinetics in mice” (female, Balb/c, mouse, in vivo, iv, 4 μmol/kg i.v.) was 2.19 µM. Also, in “Pharmacokinetics in mice” (setting [7]), the AUC(0-inf) came out at 24.2 µM·h, the AUC(0-t) was found to be 23.2 µM·h, the Cmax was found to be 2.12 µM and the MRT inf was determined as 426 min. The half-life in the data set “Pharmacokinetics in mice” (setting [7]) is 318 min. For the same molecule, the bioavailability in the data set “Pharmacokinetics in mice” (female, Balb/c, mouse, in vivo, po, 10 umol/kg, 10 μmol/kg p.o., read-out: F (% bioavailability)) was found to be 89.7%. Besides, in the data set “Pharmacokinetics in mice” (mouse, in vivo, po, 10 umol/kg, 10 μmol/kg p.o.), the time of peak concentration (Tmax) was 30 min.

The values above are taken from publication PMC3495945, “Org 214007-0: A Novel Non-Steroidal Selective Glucocorticoid Receptor Modulator with Full Anti-Inflammatory Properties and Improved Therapeutic Index” (PLoS ONE, 2012).
